{
  "source": "ChEMBL document CHEMBL5260832",
  "about": "“Hepatoprotective natural triterpenoids” (Eur J Med Chem, 2018)",
  "key": {"HepG2 [1]": {"system": "HepG2", "experiment": "Hepatoprotective activity against H2O2-induced human HepG2 cells assessed as increase in AST level at 25.55 uM", "format": "functional"}, "HepG2 [2]": {"system": "HepG2", "experiment": "Hepatoprotective activity against H2O2-induced human HepG2 cells assessed as increase in ALT level", "format": "functional"}, "Hepatocyte [3]": {"system": "Hepatocyte", "experiment": "Hepatoprotective activity against D-GaIN-induced toxicity in mouse hepatocytes at 10 uM relative to control", "format": "functional"}, "Hepatocyte [4]": {"system": "Hepatocyte", "experiment": "Hepatoprotective activity against D-GaIN-induced toxicity in mouse hepatocytes at 30 uM relative to control", "format": "functional"}, "Hepatocyte [5]": {"system": "Hepatocyte", "experiment": "Hepatoprotective activity against D-GaIN-induced toxicity in mouse hepatocytes at 3 uM relative to control", "format": "functional"}, "Hepatocyte [6]": {"system": "Hepatocyte", "experiment": "Hepatoprotective activity against D-GaIN-induced toxicity in mouse hepatocytes at 100 uM relative to control", "format": "functional"}, "Hepatocyte [7]": {"system": "Hepatocyte", "experiment": "Hepatoprotective activity against CCL4-induced rat hepatocyte toxicity assessed as decrease in IL-1beta level at 0.1 mg/mL relative to control", "format": "functional", "parameters": "scale not given: the % may be the effect or the level left"}, "Rattus norvegicus [8]": {"system": "Rattus norvegicus", "experiment": "Hepatoprotective activity in CCl4-induced rat model assessed as elevated level of ALP at 20 mg/kg relative to control", "format": "functional"}, "Rattus norvegicus [9]": {"system": "Rattus norvegicus", "experiment": "Hepatoprotective activity in CCl4-induced rat model assessed as elevated level of ALP at 10 mg/kg relative to control", "format": "functional"}, "Rattus norvegicus [10]": {"system": "Rattus norvegicus", "experiment": "Hepatoprotective activity in CCl4-induced rat model assessed as elevated level of GPT at 10 mg/kg relative to control", "format": "functional"}, "Rattus norvegicus [11]": {"system": "Rattus norvegicus", "experiment": "Hepatoprotective activity in CCl4-induced rat model assessed as elevated level of bilirubin at 10 mg/kg relative to control", "format": "functional"}, "Rattus norvegicus [12]": {"system": "Rattus norvegicus", "experiment": "Hepatoprotective activity in CCl4-induced rat model assessed as elevated level of GOT at 20 mg/kg relative to control", "format": "functional"}, "Rattus norvegicus [13]": {"system": "Rattus norvegicus", "experiment": "Hepatoprotective activity in CCl4-induced rat model assessed as elevated level of GPT at 20 mg/kg relative to control", "format": "functional"}, "Rattus norvegicus [14]": {"system": "Rattus norvegicus", "experiment": "Hepatoprotective activity in CCl4-induced rat model assessed as elevated level of GOT at 10 mg/kg relative to control", "format": "functional"}, "Rattus norvegicus [15]": {"system": "Rattus norvegicus", "experiment": "Hepatoprotective activity in CCl4-induced rat model assessed as elevated level of bilirubin at 20 mg/kg relative to control", "format": "functional"}, "HepG2 [16]": {"system": "HepG2", "experiment": "Cytoprotective activity against t-BHP induced cell death in human HepG2 cells assessed as cell survival rate at 5 uM relative to control", "format": "functional"}, "Mus musculus [17]": {"species_on_record": "Mus musculus", "experiment": "Hepatoprotective activity in mouse model of CCl4-induced liver injury assessed as reduction in AST level at 100 microg/ml (reference value: 5.9 U/mL)", "format": "functional", "conditions": "dose 100 µg/ml"}, "Mus musculus [18]": {"species_on_record": "Mus musculus", "experiment": "Hepatoprotective activity in mouse liver homogenate assessed as inhibition of iron/ascorbate lipid peroxidation at 5.0 mg/mL relative to control", "format": "functional", "parameters": "scale not given: the % may be the effect or the level left"}, "Hepatocyte [19]": {"system": "Hepatocyte", "experiment": "Hepatoprotective activity against D-GaIN/TNFalpha induced cell death in mouse hepatocytes assessed as cell survival rate at 100 uM relative to control", "format": "functional"}, "Hepatocyte [20]": {"system": "Hepatocyte", "experiment": "Hepatoprotective activity against D-GaIN/TNFalpha induced cell death in mouse hepatocytes assessed as cell survival rate at 50 uM relative to control", "format": "functional"}, "Hepatocyte [21]": {"system": "Hepatocyte", "experiment": "Hepatoprotective activity against D-GaIN/TNFalpha induced cell death in mouse hepatocytes assessed as cell survival rate at 200 uM relative to control", "format": "functional"}, "Rattus norvegicus [22]": {"system": "Rattus norvegicus", "experiment": "Hepatoprotective activity in CCl4-induced rat model of liver injury assessed as reduction in ALT level at 4 mg/kg relative to control", "format": "functional", "parameters": "scale not given: the % may be the effect or the level left"}, "[23]": {"experiment": "Hepatotoxicity in GaIN-induced rat model of liver injury assessed as reduction in ALT level at 4 mg/kg relative to control", "format": "toxicity, organism-based", "parameters": "scale not given: the % may be the effect or the level left", "conditions": "in vivo"}},
  "data": [
    {"smiles": "CC(=O)[C@H]1CC(=O)[C@@]2(C)C3=C(C(=O)C[C@]12C)[C@@]1(C)CCC(=O)C(C)(C)[C@@H]1CC3=O", "values": [
      {"measurement": "Activity", "setting": "HepG2 [1]", "value": 26.83, "unit": "U/L"},
      {"measurement": "Activity", "setting": "HepG2 [2]", "value": 21.42, "unit": "U/L"}
    ]},
    {"smiles": "CC1(C)CC[C@]2(C(=O)O[C@@H]3O[C@H](CO)[C@@H](O)[C@H](O)[C@H]3O)CC[C@]3(C)C(=CC[C@@H]4[C@@]5(C)C[C@@H](O)[C@H](O)C(C)(C)[C@@H]5CC[C@]43C)[C@@H]2[C@@H]1O", "values": [
      {"measurement": "Activity", "setting": "Hepatocyte [3]", "value": 24.5, "unit": "%"},
      {"measurement": "Activity", "setting": "Hepatocyte [4]", "value": 25.2, "unit": "%"},
      {"measurement": "Activity", "setting": "Hepatocyte [5]", "value": 11.1, "unit": "%"},
      {"measurement": "Activity", "setting": "Hepatocyte [6]", "value": 15.6, "unit": "%"}
    ]},
    {"smiles": "C[C@H]1O[C@@H](O[C@H]2CC[C@@]3(C)[C@@H](CC[C@]4(C)[C@@H]3C=C[C@]35OC[C@@]6(CCC(C)(C)C[C@H]63)[C@@H](O)C[C@]54C)[C@]2(C)CO)[C@H](O[C@@H]2O[C@H](CO)[C@@H](O)[C@H](O)[C@H]2O)[C@@H](O[C@@H]2O[C@H](CO)[C@@H](O)[C@H](O)[C@H]2O)[C@H]1O", "note": "[BUDDLEJASAPONIN IV]", "values": [
      {"measurement": "Activity", "setting": "Hepatocyte [7]", "value": 74.96, "unit": "%"}
    ]},
    {"smiles": "CC(C)[C@@H]1CC[C@@H]2C3=CC[C@@H]4[C@@]5(C)CC[C@@H](O)C(C)(C)[C@@H]5CC[C@@]4(C)[C@]3(C)CC[C@]21C(=O)O", "values": [
      {"measurement": "Activity", "setting": "Rattus norvegicus [8]", "value": 32, "unit": "%"},
      {"measurement": "Activity", "setting": "Rattus norvegicus [9]", "value": 5, "unit": "%"},
      {"measurement": "Activity", "setting": "Rattus norvegicus [10]", "value": 24, "unit": "%"},
      {"measurement": "Activity", "setting": "Rattus norvegicus [11]", "value": 30, "unit": "%"},
      {"measurement": "Activity", "setting": "Rattus norvegicus [12]", "value": 21, "unit": "%"},
      {"measurement": "Activity", "setting": "Rattus norvegicus [13]", "value": 13, "unit": "%"},
      {"measurement": "Activity", "setting": "Rattus norvegicus [14]", "value": 13, "unit": "%"},
      {"measurement": "Activity", "setting": "Rattus norvegicus [15]", "value": 24, "unit": "%"}
    ]},
    {"smiles": "CC(C(=O)O)[C@H]1CC[C@@]2(C)[C@@H]3C(=O)C=C4[C@@H](CC[C@@H](O)C4(C)C)[C@]3(C)CC[C@]12C", "note": "(stereo partly drawn)", "values": [
      {"measurement": "Activity", "setting": "HepG2 [16]", "value": 55.2, "unit": "%"}
    ]},
    {"smiles": "C[C@H]1[C@H](C)CC[C@]2(C)CC[C@]3(C)C(=CC[C@@H]4[C@@]5(C)CC[C@H](O)C(C)(C)[C@@H]5CC[C@]43C)[C@H]12", "values": [
      {"measurement": "Activity", "setting": "Mus musculus [17]", "value": 40.22, "unit": "U/ml"}
    ]},
    {"smiles": "C=C(C)[C@@H]1CC[C@]2(C(=O)O)CC[C@]3(C)[C@H](CC[C@@H]4[C@@]5(C)CC[C@H](O)C(C)(C)[C@@H]5CC[C@]43C)[C@@H]12", "note": "[BETULINIC ACID]", "values": [
      {"measurement": "Activity", "setting": "Mus musculus [18]", "value": 52.7, "unit": "%"},
      {"measurement": "Activity", "setting": "Hepatocyte [19]", "value": 26.1, "unit": "%"},
      {"measurement": "Activity", "setting": "Hepatocyte [20]", "value": 39.2, "unit": "%"},
      {"measurement": "Activity", "setting": "Hepatocyte [21]", "value": 23, "unit": "%"}
    ]},
    {"smiles": "COC(=O)[C@]12CC[C@@H](C)[C@H](C)[C@H]1C1=CC[C@@H]3[C@@]4(C)C[C@@H](OC)[C@H](OC(C)=O)[C@@](C)(COC(C)=O)[C@@H]4CC[C@@]3(C)[C@]1(C)CC2", "values": [
      {"measurement": "Activity", "setting": "Rattus norvegicus [22]", "value": 33.3, "unit": "%"}
    ]},
    {"smiles": "COC(=O)[C@]12CC[C@@H](C)[C@H](C)[C@H]1C1=CC[C@@H]3[C@@]4(C)C[C@@H](OCc5ccccc5)C5OC(C)(C)OC[C@@]5(C)[C@@H]4CC[C@@]3(C)[C@]1(C)CC2", "note": "(stereo partly drawn)", "values": [
      {"measurement": "Activity", "setting": "[23]", "value": 33.6, "unit": "%"}
    ]}
  ]
}
